Laboratory results from ChEMBL document CHEMBL6071142, “Isoalantolactone/hydroxamic acid hybrids as potent dual STAT3/HDAC inhibitors and self-assembled nanoparticles for cancer therapy” (Eur J Med Chem, 2024).
Calls of active or inactive are those of the source. No cut-off for these calls is given here.

Legend:
[1] = target: T1, Protein deacetylase HDAC6 (Homo sapiens, UniProt Q9UBN7); assay: Inhibition of recombinant human HDAC6 using Boc-Lys (acetyl)-AMC as substrate preincubated with compound for 1 hr followed by substrate addition and measured after 30 mins by microplate reader assay
T1 sequence (Q9UBN7 whole entry): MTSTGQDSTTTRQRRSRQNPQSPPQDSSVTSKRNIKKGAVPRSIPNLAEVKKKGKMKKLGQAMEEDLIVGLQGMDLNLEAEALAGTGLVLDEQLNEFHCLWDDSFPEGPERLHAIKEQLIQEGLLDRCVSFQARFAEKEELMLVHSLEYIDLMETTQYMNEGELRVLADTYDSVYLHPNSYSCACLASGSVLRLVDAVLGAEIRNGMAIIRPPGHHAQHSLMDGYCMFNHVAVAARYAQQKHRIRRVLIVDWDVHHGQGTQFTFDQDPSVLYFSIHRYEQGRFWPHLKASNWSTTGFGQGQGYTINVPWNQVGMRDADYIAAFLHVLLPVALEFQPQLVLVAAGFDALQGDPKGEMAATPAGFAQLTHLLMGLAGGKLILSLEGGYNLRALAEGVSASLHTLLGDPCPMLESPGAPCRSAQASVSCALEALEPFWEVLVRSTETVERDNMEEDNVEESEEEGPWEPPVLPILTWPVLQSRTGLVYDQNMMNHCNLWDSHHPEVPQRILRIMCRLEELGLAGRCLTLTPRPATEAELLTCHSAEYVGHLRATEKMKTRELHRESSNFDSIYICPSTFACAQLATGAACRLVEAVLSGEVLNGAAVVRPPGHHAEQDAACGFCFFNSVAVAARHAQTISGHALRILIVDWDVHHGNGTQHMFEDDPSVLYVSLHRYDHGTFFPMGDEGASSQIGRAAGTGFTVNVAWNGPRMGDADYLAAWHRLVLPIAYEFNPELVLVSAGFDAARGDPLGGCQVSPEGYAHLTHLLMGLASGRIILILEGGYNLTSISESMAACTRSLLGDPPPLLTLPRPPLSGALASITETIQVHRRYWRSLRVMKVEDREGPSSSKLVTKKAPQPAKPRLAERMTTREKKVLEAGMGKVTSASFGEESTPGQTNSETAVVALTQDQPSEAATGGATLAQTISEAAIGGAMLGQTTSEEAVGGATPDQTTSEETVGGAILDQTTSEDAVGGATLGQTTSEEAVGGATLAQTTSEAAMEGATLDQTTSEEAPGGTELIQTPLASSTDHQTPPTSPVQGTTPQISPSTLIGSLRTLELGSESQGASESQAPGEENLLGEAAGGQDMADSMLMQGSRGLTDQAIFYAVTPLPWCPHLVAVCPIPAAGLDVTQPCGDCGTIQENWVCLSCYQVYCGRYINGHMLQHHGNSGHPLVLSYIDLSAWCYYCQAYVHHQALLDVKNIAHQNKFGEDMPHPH

[2] = target: Polyamine deacetylase HDAC10 (Homo sapiens, UniProt Q969S8); assay: Inhibition of recombinant human HDAC10 using Boc-Lys (trifluroacetyl)-AMC as substrate preincubated with compound for 1 hr followed by substrate addition and measured after 30 mins by microplate reader assay
Sequence of Polyamine deacetylase HDAC10 (Q969S8 whole entry): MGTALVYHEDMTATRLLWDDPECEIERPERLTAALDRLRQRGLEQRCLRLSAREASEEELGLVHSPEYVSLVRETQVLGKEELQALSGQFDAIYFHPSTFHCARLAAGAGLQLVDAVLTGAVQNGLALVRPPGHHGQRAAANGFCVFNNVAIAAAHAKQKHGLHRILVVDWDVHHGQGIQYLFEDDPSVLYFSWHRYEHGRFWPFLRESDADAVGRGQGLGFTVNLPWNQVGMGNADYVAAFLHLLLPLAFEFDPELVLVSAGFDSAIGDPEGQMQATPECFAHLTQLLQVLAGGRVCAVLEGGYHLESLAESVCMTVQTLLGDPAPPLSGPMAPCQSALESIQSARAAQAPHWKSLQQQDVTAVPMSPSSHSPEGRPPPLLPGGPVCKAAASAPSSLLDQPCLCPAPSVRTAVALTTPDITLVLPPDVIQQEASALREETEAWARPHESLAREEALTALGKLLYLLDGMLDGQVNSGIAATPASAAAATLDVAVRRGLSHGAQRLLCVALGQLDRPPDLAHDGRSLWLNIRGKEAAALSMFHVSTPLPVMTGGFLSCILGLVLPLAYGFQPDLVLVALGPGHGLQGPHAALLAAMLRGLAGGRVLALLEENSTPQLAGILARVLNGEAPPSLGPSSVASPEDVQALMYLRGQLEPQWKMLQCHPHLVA

Histone deacetylase 11 = Histone deacetylase 11 (Homo sapiens, UniProt Q96DB2); assay: Inhibition of recombinant human HDAC11 using Boc-Lys (trifluroacetyl)-AMC as substrate preincubated with compound for 1 hr followed by substrate addition and measured after 30 mins by microplate reader assay
Sequence of Histone deacetylase 11 (Q96DB2 whole entry): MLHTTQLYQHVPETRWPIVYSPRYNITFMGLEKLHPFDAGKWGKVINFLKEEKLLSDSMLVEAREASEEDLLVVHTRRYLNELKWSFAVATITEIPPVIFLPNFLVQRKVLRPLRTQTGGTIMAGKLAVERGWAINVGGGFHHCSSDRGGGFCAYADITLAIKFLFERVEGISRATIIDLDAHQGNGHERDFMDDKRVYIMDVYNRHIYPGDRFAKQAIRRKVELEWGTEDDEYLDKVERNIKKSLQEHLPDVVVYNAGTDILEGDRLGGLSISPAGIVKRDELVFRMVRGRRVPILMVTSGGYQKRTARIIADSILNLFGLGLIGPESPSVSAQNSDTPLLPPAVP

A549 [3] = assay: Induction of autophagy in human A549 cells transfected with mRFP-GFP-LC3 assessed as increase in LC3-II:LC3-I protein level at 0.5 uM by Western blot analysis; type: functional, cell-based; conditions: time 0-72 hrs, TDE = time-dependent effect
A549 [4] = assay: Induction of autophagy in human A549 cells transfected with mRFP-GFP-LC3 at 0.5 uM incubated for 24 hrs by confocal microscopic analysis; type: functional, cell-based
A549 [5] = assay: Induction of autophagy in human A549 cells transfected with mRFP-GFP-LC3 assessed as increase in red puncta at 0.5 uM incubated for 24 hrs by confocal microscopic analysis; type: functional, cell-based
A549 [6] = assay: Induction of apoptosis in human A549 cells assessed as viable cells at 2 uM incubated for 24 hrs by Annexin V-FITC/PI staining based flow cytometric analysis (reference value: 95.08%); type: functional; conditions: Homo sapiens, A549, read-out: Activity
A549 [7] = assay: Induction of apoptosis in human A549 cells assessed as early apoptotic cells at 2 uM incubated for 24 hrs by Annexin V-FITC/PI staining based flow cytometric analysis (reference value: 1.53%); type: functional
A549 [8] = assay: Induction of apoptosis in human A549 cells assessed as early apoptotic cells at 4 uM incubated for 24 hrs by Annexin V-FITC/PI staining based flow cytometric analysis (reference value: 1.53%); type: functional
A549 [9] = assay: Induction of apoptosis in human A549 cells at 4 uM incubated for 24 hrs by Annexin V-FITC/PI staining based flow cytometric analysis; type: functional
A549 [10] = assay: In vivo antitumor activity against human A549 cells xenografted in female BALB/c nu/nu mouse assessed as tumor volume at 5 mg/kg, iv administered every 3 days and measured on 18 day relative to control; type: functional; conditions: time 3 day
[11] = Toxicity in female BALB/c nu/nu mouse xenografted with human A549 cells assessed as effect on body weight at 2.5 mg/kg, iv and measured regularly; type: organism-based; conditions: in vivo
[12] = Toxicity in female BALB/c nu/nu mouse xenografted with human A549 cells assessed as effect on spleen at 2.5 mg/kg, iv by H and E staining based analysis; type: organism-based; conditions: in vivo
HCT-116 [13] = assay: Anticancer activity against human HCT-116 cells assessed as cell viability incubated for 72 hrs using self assembled nanoparticle as source of compound by CCK-8 assay; type: functional, cell-based; conditions: HCT-116, 72 h
HCT-116 [14] = assay: cells; conditions: Homo sapiens, HCT-116, 72 h
Description: Antiproliferative activity against human HCT-116 cells assessed as inhibition of cell proliferation incubated for 72 hrs by CCK-8 assay

A549 [15] = assay: Induction of autophagy in human A549 cells assessed as upregulation of LC3-II at 4 uM incubated for 12 hrs by Western blot analysis

IC50 [1]: 7.69 nM
IC50 [2]: 57.4 nM
IC50 (Histone deacetylase 11): 265 nM
IC50 (HCT-116 [13]): 23 nM
IC50 (HCT-116 [14]): 40 nM
Compound: C=C1C(=O)O[C@@H]2C[C@@]3(C)CC[C@@H](OC(=O)[C@H](C)NC(=O)c4ccc(/C=C/C(=O)NO)cc4)C(=C)[C@@H]3C[C@H]12
Activity (A549 [3]): Tde
Activity (A549 [4]): Active
Activity (A549 [5]): Active
viability at 2 µM (A549 [6]): 82.5%
Activity (A549 [7]): 4.07%
Activity (A549 [8]): 5.3%
Activity (A549 [9]): 40%
Activity (A549 [10]): 47.3%
Activity [11]: Non-Toxic
Activity [12]: Non-Toxic
Activity (A549 [15]): Active
